These are literature values, as cited in patent US11612595B2, “Compositions and methods for treating rheumatoid arthritis” (Generos Biopharma Ltd., priority 2017, dated 2023).

The target of one data set is SH2 domain of STAT3 (Homo sapiens, UniProt P40763). Particulars: read-out: IC50 towards the SH2 domain of STAT3; cited from earlier work.
The target of data set [1] is T1, STAT5 (Homo sapiens, UniProt P42229+P51692).
T1 sequence (P42229 1-794): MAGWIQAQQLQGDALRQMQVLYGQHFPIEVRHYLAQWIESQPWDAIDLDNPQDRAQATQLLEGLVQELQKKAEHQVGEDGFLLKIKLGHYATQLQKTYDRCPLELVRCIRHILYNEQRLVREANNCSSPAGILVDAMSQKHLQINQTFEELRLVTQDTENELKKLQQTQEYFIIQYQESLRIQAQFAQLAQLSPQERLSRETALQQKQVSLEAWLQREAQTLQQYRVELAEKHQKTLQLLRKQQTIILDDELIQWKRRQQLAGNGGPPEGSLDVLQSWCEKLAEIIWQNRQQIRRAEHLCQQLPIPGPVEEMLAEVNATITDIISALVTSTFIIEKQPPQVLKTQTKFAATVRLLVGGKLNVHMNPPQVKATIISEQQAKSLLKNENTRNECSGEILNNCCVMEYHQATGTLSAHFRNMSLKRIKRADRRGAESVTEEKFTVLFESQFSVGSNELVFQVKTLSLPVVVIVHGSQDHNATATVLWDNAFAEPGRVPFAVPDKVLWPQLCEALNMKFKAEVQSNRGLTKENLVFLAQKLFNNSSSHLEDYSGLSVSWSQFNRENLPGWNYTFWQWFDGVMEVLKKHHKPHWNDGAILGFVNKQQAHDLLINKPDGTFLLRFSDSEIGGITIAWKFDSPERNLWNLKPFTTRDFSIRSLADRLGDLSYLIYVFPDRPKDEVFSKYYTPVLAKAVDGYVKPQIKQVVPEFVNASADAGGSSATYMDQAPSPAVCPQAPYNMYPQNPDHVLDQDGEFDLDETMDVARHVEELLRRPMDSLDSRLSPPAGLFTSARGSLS
T1 sequence (P51692 1-787): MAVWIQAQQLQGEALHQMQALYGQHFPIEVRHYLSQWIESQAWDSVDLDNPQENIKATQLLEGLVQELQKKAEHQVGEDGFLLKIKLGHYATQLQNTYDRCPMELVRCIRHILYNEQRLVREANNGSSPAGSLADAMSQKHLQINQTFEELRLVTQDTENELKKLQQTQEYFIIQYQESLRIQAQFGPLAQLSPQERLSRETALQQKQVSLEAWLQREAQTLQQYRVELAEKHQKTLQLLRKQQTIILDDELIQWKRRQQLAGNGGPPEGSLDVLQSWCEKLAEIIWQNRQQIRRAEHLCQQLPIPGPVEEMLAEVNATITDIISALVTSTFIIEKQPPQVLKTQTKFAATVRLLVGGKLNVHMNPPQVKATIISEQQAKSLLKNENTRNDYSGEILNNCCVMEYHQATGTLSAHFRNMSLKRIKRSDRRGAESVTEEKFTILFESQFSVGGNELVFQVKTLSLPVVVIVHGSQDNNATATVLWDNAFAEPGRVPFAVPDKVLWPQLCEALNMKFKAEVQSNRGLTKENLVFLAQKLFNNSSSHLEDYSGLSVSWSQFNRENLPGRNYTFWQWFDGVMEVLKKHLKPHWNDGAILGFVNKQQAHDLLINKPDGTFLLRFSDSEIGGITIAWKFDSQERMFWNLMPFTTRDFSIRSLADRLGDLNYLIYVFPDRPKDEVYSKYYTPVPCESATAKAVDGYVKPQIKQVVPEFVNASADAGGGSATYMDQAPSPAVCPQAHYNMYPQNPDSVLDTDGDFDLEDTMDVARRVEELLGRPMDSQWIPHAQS
The arrangement: endogenous in cells; host or cells: K562 nuclear extract. Particulars: K562 nuclear extract; cited from earlier work.

Data set [2] has as its target T1, STAT5. The arrangement: in Bcr-Abl+ K562 and KU812 cultures; endogenous in cells; host or cells: K562 and KU812 cells. Conditions: 5 to 10 μM for 3 h; Bcr-Abl+ K562 and KU812 cultures; cited from earlier work.
The target of data set [3] is T1, STAT5. The arrangement: in Bcr-Abl+ K562 and KU812 cultures; endogenous in cells; host or cells: K562 and KU812 cells. Particulars: cited from earlier work.

Sequence of SH2 domain of STAT3 (P40763 whole entry, the tested form may be a part): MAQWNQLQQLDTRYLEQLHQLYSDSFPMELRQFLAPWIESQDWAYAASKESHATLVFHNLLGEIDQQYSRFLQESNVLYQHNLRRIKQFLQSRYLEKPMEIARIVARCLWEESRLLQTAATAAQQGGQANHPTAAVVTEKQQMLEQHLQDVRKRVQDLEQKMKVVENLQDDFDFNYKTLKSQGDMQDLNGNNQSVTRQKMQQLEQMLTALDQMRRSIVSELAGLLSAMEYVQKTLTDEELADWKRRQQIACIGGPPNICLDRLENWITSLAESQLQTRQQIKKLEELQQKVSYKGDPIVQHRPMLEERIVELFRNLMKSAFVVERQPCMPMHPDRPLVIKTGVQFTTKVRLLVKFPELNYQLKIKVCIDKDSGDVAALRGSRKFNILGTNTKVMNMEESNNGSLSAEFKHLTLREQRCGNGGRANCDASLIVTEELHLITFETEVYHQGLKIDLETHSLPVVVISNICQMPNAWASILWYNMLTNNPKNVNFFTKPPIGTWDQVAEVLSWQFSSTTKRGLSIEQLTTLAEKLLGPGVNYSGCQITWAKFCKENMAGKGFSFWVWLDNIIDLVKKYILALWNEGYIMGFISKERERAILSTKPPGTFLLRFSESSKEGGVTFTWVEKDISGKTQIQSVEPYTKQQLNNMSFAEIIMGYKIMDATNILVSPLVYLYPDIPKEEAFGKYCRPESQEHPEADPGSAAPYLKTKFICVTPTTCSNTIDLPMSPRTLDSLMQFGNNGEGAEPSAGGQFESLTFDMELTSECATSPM

Take `O=C(N/N=C/c1coc2ccccc2c1=O)c1cccnc1` [nicotinohydrazide, N′-((4-Oxo-4H-chromen-3-yl)methylene)nicotinohydrazide]: at SH2 domain of STAT3, the half-inhibitory concentration (IC50) was over 500 µM. In addition, the “STAT5/STAT5 DNA binding activity” value on STAT5 [1] was “blocks”.
Take `O=c1[nH]c2ccccc2n1C1CCN(CCCC(c2ccc(F)cc2)c2ccc(F)cc2)CC1` [pimozide, 1-[1-[4,4-bis(4-fluorophenyl)butyl]-4-piperidinyl]-1,3-dihydro-2H-benzimidazole-2-one]: at STAT5 [2], the “constitutive STAT5 Tyr694 phosphorylation” value is “inhibits”. On STAT5 [3] (5 μM for 18 h, Bcr-Abl+ K562 and KU812 cultures), the STAT5 transcription activity entry is reported as “inhibits”. At STAT5 [3] (CML cell lines), the “expression of STAT5 target genes” value is listed as “decreased”.
